Like-named read-outs stand apart in the source and are kept apart here.
Tests used:
HIV-1 strain LAI = assay: Cellular anti-HIV assay, MT4 cells, MTT readout, wild type HIV-1 strain LAI; assay type: cell-based
Experimental: The compounds of the present invention were examined for anti-viral activity in a cellular assay. […] The cellular assay was performed according to the following procedure.

mutant B = assay: Antiviral spectrum, fold resistance towards mutant B; assay type: cell-based; conditions: FR=IC50(mutant strain)/IC50(HIV-1 strain LAI)
Experimental: (§1) Because of the increasing emergence of drug resistant HIV strains, the present compounds were tested for their potency against clinically isolated HIV strains harboring several mutations. These mutations are associated with resistance to protease inhibitors and result in viruses that show various degrees of phenotypic cross-resistance to the currently commercially available drugs such as for instance saquinavir, ritonavir, nelfinavir, indinavir and amprenavir. The viral strains R13025, R13027, R13028, R13029, R13034, R13080, T13127 and R13363 contained mutations as indicated below in Table 3.

mutant C = assay: Antiviral spectrum, fold resistance towards mutant C; assay type: cell-based; conditions: FR=IC50(mutant strain)/IC50(HIV-1 strain LAI)
Experimental: as §1

mutant D = assay: Antiviral spectrum, fold resistance towards mutant D; assay type: cell-based; conditions: FR=IC50(mutant strain)/IC50(HIV-1 strain LAI)
Experimental: as §1

mutant A = assay type: cell-based; conditions: FR=IC50(mutant strain)/IC50(HIV-1 strain LAI)
Experimental: (§2) HIV- or mock-infected MT4 cells were incubated for five days in the presence of various concentrations of the inhibitor. […] Cell viability is measured by measuring the concentration of MTT, a yellow, water soluble tetrazolium dye that is converted to a purple, water insoluble formazan in the mitochondria of living cells only. Upon solubilization of the resulting formazan crystals with isopropanol, the absorbance of the solution is monitored at 540 nm. The values correlate directly to the number of living cells remaining in the culture at the completion of the five day incubation. The inhibitory activity of the compound was monitored on the virus-infected cells and was expressed as IC50 and IC90. These values represent the amount of the compound required to protect 50% and 90%, respectively, of the cells from the cytopathogenic effect of the virus. […] The selectivity index (SI) (ratio CC50/IC50) is an indication of the selectivity of the anti-HIV activity of the inhibitor. Wherever results are reported as e.g. pIC50 or pCC50 values, the result is expressed as the negative logarithm of the result expressed as IC50 or CC50 respectively.
(§3) Because of the increasing emergence of drug resistant HIV strains, the present compounds were tested for their potency against clinically isolated HIV strains harboring several mutations. […] The viral strains R13025, R13027, R13028, R13029, R13034, R13080, T13127 and R13363 contained mutations as indicated below in Table 3.
(§4) As a measure of the broad spectrum activity of the present compounds, the fold resistance (FR), defined as FR=IC50(mutant strain)/IC50(HIV-1 strain LAI), was determined.

mutant E = assay type: cell-based; conditions: FR=IC50(mutant strain)/IC50(HIV-1 strain LAI)
Experimental: as §2, §3, §4

mutant F = assay: Antiviral spectrum, fold resistance towards mutant F; assay type: cell-based; conditions: FR=IC50(mutant strain)/IC50(HIV-1 strain LAI)
Experimental: as §1

mutant H = assay: Antiviral spectrum, fold resistance towards mutant H; assay type: cell-based; conditions: FR=IC50(mutant strain)/IC50(HIV-1 strain LAI)
Experimental: as §1

in vitro = conditions: human
Experimental: as §2, §4

mutant G = assay: Antiviral spectrum, fold resistance towards mutant G; assay type: cell-based; conditions: FR=IC50(mutant strain)/IC50(HIV-1 strain LAI)
Experimental: as §1

mock-infected MT4 cells = assay: in vitro
Experimental: as §2, §4

[1] = Oral availability in the rat, serum concentration; assay type: in vivo
Experimental: The compounds are formulated as a 20 mg/ml solution or suspension in DMSO, PEG400 or cyclodextin 40% in water. For most experiments in the rat (male and female rats), three dosing groups are formed: 1/single intraperitoneal (IP) dose at 20 mg/kg using DMSO formulation; 2/single oral dose at 20 mg/kg using […] oral dose at 20 mg/kg using PEG400 formulation. Blood is sampled at regular time intervals after dosing and drug concentrations in the serum are determined using a LC-MS bioanalytical method. Serum concentrations are expressed in […]. Serum concentration at 30 minutes (30′) and at 3 hours (180′) can be determined as these values reflect the extent of absorption (30′) and the speed of elimination (180′). The rat serum concentration at 30 min and 180 min following IP administration of 20 mg/kg of compound 18 are 2012 ng/ml and 190 ng/ml respectively. The rat serum concentration at 30 min and 180 min following oral administration of 20 mg/kg as a DMSO formulation of compound 18 are 148 ng/ml and 44 ng/ml respectively; whereas in PEG400 said concentrations are respectively 475 ng/ml and 63 ng/ml.

[2] = Human immunodeficiency virus 1, 120 h, Table 1, MT4 cells, five days, HIV-1 strain LAI, read-out: pIC50 (LAI) (converted)
[3] = Human immunodeficiency virus 1, MT4, Table 4, wild type HIV-LAI strain, read-out: WT (pIC50 against wild type HIV-LAI strain) (converted)
[4] = Table 1, MT4 cells, five days, HIV-1 strain LAI
[5] = Table 4, wild type HIV-LAI strain
[6] = pCC50 value as determined with mock transfected cells

Compound	FR towards mutant B (mutant B)	FR towards mutant C (mutant C)	FR towards mutant D (mutant D)	FR value towards mutant A (mutant A)	FR towards mutant E (mutant E)	FR towards mutant F (mutant F)	pIC50 (LAI) (HIV-1 strain LAI; [4])	WT (pIC50 against wild type HIV-LAI strain) (HIV-1 strain LAI; [5])	FR towards mutant G (mutant G)	Tox (pCC50) (mock-infected MT4 cells; [6])	also measured
Cc1nc2ccc(S(=O)(=O)N(CC(C)C)C[C@@H](O)[C@H](Cc3ccccc3)NC(=O)O[C@H]3CO[C@H]4OCC[C@H]43)cc2n1Cc1ccccc1 [Compound 2, [(1S,2R)-2-hydroxy-3-[[[[2-methyl-1-(phenylmethyl)]benzimidazol-6-yl]sulfonyl]-(2-methylpropyl)amino]-1-(phenylmethyl)propyl]carbamic acid, [(3R,3aS,6aR)-hexahydrofuro[2,3-b]furan-3-yl]ester]	6.3	1.9	6.3	32	2.9	162					IC50 (HIV-1 strain LAI; [2]): 1 nM; IC50 (HIV-1 strain LAI; [3]): 1 nM; FR towards mutant H (mutant H): 89; CC50 at 5 days (in vitro): 63100 nM
CC(C)CN(CC(O)C(Cc1ccccc1)NC(=O)OC1COC2OCCC12)S(=O)(=O)c1ccc2nc(CO)[nH]c2c1 (centres unmarked) [Compound 56]	0.66	0.43	0.18	0.28	0.18	0.34	5.7	5.7	0.83		Tox (pCC50) (mock-infected MT4 cells): <4
[(1S,2R)-2-hydroxy-3-[[(2-methylbenzimidazol-5-yl)sulfonyl](2-methylpropyl)amino]-1-(phenylmethyl)propyl]-carbamic acid, [(3R,3aS,6aR)-hexahydrofuro[2,3-b]furan-3-yl]ester [Compound 24]	0.85	1.1	0.89	2.6	0.83	4.7	7.3	7.3	35	<4	
CC(=O)Nc1nc2ccc(S(=O)(=O)N(CC(C)C)C[C@@H](O)[C@H](Cc3ccccc3)NC(=O)COc3c(C)cccc3C)cc2[nH]1 [Compound 9, [(1S,2R)-3-[[[2-(acetylamino)benzimidazol-5-yl]sulfonyl](2-methyl-propyl)amino]-2-hydroxy-1-(phenylmethyl)propyl]-(2,6-dimethylphenoxy)acetamide]	1.3	4.4	2.4	4.3	2.8	14			107		IC50 (HIV-1 strain LAI; [2]): 3.98 nM; IC50 (HIV-1 strain LAI; [3]): 3.98 nM; CC50 at 5 days (in vitro): > 100000 nM
CC(C)CN(CC(O)C(Cc1ccccc1)NC(=O)OC1COC2OCCC12)S(=O)(=O)c1ccc2ncn(CCc3ccccc3)c2c1 (centres unmarked) [Compound 5]	1.9	0.9	1.9		3.2	78	8.7	8.7	110	4.1	FR towards mutant H (mutant H): 49
CC(C)CN(CC(O)C(Cc1ccccc1)NC(=O)OC1COC2OCCC12)S(=O)(=O)c1ccc2ncn(C)c2c1 (centres unmarked) [Compound 18]											rat serum concentration at 30 min ([1]; IP administration of 20 mg/kg, 30 min): 2012 ng/mL; rat serum concentration at 180 min ([1]; IP administration of 20 mg/kg, 180 min): 190 ng/mL; rat serum concentration at 30 min ([1]; oral administration of 20 mg/kg as a DMSO formulation, 30 min): 148 ng/mL; rat serum concentration at 180 min ([1]; oral administration of 20 mg/kg as a DMSO formulation, 180 min): 44 ng/mL; rat serum concentration at 30 min ([1]; oral administration of 20 mg/kg in PEG400, 30 min): 475 ng/mL; rat serum concentration at 180 min ([1]; oral administration of 20 mg/kg in PEG400, 180 min): 63 ng/mL
COC(=O)Nc1nc2ccc(S(=O)(=O)N(CC(C)C)C[C@@H](O)[C@H](Cc3ccccc3)NC(=O)COc3c(C)cc(C#N)cc3C)cc2[nH]1 [Compound 12]	2.1	9.5	7.9	5.5	9.5	49	7.8	7.8	89	<4	
CC(C)CN(C[C@@H](O)[C@H](Cc1ccccc1)NC(=O)OC1COC2OCCC12)S(=O)(=O)c1ccc2nc(NC(=O)NCCN(C)C)[nH]c2c1 (some centres unmarked) [Compound 58]	1.0	1.0	0.32	1.0	0.37	1.1	5.6	5.6	1.1		Tox (pCC50) (mock-infected MT4 cells): <4
CC(C)CN(CC(O)C(Cc1ccccc1)NC(=O)OC1COC2OCCC12)S(=O)(=O)c1ccc2nc(NC(=O)OCCN(C)C)[nH]c2c1 (centres unmarked) [Compound 48]	1.9	0.38	0.35	0.37	0.32	0.35	6.4	6.4	0.85	<4	
COC(=O)Nc1nc2ccc(S(=O)(=O)N(CC(C)C)C[C@@H](O)[C@H](Cc3ccccc3)NC(=O)c3ccc(N)cc3C)cc2[nH]1 [Compound 22]	0.78	1.1	0.71	0.74	0.72	0.69	7.4	7.4	4.3	4.1	
CC(=O)Nc1nc2ccc(S(=O)(=O)N(CC(C)C)C[C@@H](O)[C@H](Cc3ccccc3)NC(=O)OC3COC4OCCC34)cc2[nH]1 (some centres unmarked) [Compound 38]	0.32	0.39	0.19	0.12	0.17	0.21	6.7	6.7	0.60		Tox (pCC50) (mock-infected MT4 cells): <4
COC(=O)Nc1nc2ccc(S(=O)(=O)N(CC(C)C)C[C@@H](O)[C@H](Cc3ccccc3)NC(=O)c3ccc([N+](=O)[O-])cc3C)cc2[nH]1 [Compound 11]	1.0	1.5	3.5	5.4	1.6	7.1	8.0	8.0	245	<4	

— patent US8143421B2, “Broadspectrum substituted benzimidazole sulfonamide HIV protease inhibitors” (priority 2002, dated 2012)
